Reference: publication PMC2721768 (Purinergic Signalling, 2008)
Marks after values point to notes of the source that are not given here.

Assays:
rat NTPDase2 = biological target: T1, rat NTPDase2 (Rattus norvegicus, UniProt O35795); assay: Inhibition of rat NTPDase2; conditions: for inhibition at 1000 µM: read-out: percent inhibition at 1 mM NTPDase2
T1 sequence (O35795 1-495): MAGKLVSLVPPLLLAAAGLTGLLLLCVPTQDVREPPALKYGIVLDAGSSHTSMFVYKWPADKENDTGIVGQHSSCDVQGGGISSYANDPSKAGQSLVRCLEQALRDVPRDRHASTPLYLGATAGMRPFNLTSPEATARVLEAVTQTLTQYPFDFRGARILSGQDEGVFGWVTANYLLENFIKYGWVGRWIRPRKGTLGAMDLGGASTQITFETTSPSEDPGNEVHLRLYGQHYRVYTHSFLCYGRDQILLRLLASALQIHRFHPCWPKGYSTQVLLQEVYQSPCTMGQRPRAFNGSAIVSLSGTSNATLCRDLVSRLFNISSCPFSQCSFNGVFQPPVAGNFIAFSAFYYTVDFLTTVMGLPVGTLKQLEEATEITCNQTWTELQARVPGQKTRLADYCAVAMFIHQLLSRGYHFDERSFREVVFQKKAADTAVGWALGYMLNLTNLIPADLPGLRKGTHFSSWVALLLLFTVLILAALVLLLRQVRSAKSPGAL

rat NTPDase3 = biological target: T2, rat NTPDase3 (Rattus norvegicus, UniProt A6I415); assay: Inhibition of rat NTPDase3; conditions: for inhibition at 1000 µM: read-out: percent inhibition at 1 mM NTPDase3
T2 sequence (A6I415 1-529): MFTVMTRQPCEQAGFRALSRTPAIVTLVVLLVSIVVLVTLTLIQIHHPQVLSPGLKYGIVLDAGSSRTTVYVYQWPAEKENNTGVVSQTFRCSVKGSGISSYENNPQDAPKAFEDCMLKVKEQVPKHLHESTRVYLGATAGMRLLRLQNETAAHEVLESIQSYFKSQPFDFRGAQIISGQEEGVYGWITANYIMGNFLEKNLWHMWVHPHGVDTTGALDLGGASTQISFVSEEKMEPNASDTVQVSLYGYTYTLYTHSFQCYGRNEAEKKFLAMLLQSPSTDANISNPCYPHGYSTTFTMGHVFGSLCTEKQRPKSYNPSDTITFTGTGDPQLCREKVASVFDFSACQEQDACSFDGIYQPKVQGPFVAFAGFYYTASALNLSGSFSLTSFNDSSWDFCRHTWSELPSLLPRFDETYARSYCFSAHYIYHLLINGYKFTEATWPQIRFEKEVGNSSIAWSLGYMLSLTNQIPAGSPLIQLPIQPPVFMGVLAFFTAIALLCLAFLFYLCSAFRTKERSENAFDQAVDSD

rat NTPDase1 = biological target: T3, rat NTPDase1 (Rattus norvegicus, UniProt P97687); assay: Inhibition of rat NTPDase1; conditions: for inhibition at 1000 µM: read-out: percent inhibition at 1 mM NTPDase1; for percent inhibition at 1 mM NTPDase1 / inhibition of rat NTPDase1 (in words): rat NTPDase1; for percent inhibition at 1 mM NTPDase1: 1 mM compound, ATP 400 μM
T3 sequence (P97687 1-511): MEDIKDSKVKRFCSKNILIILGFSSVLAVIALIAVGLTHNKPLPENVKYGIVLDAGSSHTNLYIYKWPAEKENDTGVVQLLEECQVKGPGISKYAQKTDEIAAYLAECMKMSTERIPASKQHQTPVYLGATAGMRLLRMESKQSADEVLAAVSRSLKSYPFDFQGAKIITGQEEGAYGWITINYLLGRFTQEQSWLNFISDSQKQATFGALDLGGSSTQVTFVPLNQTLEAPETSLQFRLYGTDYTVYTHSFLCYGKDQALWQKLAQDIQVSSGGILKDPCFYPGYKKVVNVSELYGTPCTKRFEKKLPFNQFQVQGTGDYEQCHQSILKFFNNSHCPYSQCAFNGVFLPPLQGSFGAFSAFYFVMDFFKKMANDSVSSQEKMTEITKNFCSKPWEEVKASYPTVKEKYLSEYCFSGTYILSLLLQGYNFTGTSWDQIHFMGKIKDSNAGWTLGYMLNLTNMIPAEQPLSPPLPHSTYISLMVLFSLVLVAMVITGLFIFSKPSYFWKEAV

NTPDases1, 2, and 3 = conditions: rat NTPDase1, 2 and 3
P2Y2 = conditions: read-out: IC50 P2Y2 antagonist; cited from earlier work
[1] = Solubility and stability under the test conditions; type: physicochemical; conditions: 3 mM in HEPES assay buffer (diluted from 10 mM aqueous solution)
[2] = system: ectonucleotidase activity in rat vas deferens tissue; conditions: at 100 μM; cited from earlier work
[3] = rat NTPDase3, inhibitor 10, 20, and 30 μM

| inhibition at 1000 µM (rat NTPDase2) [%] | inhibition at 1000 µM (rat NTPDase3) [%] | inhibition at 1000 µM (rat NTPDase1) [%] | Compound | further results |
| --- | --- | --- | --- | --- |
| 0 | 0 | 0 | Cc1ccc(Nc2cc(C)c(N)c3c2C(=O)c2ccccc2C3=O)cc1 [Compound 25, 1-Amino-2-methyl-4-(4-methylphenylamino)anthraquinone] |  |
| 0 | 0 | 0 | Nc1c(S(=O)(=O)NCc2ccccc2)cc(Br)c2c1C(=O)c1ccccc1C2=O [Compound 32, 1-Amino-4-bromoanthraquinone-2-sulfonic acid benzylamide] |  |
| 0 | 0 | 0 | Cc1cccc(Nc2cc(C)c(N)c3c2C(=O)c2ccccc2C3=O)c1 [Compound 24, 1-Amino-2-methyl-4-(3-methylphenylamino)anthraquinone] |  |
| 0 | 0 | 0 | Nc1c(S(=O)(=O)Nc2ccccc2)cc(Br)c2c1C(=O)c1ccccc1C2=O [Compound 31, 1-Amino-4-bromoanthraquinone-2-sulfonic acid phenyl amide] |  |
| 0 | 0 | 0 | Nc1c(S(=O)(=O)NCCc2ccccc2)cc(Br)c2c1C(=O)c1ccccc1C2=O [Compound 33, 1-Amino-4-bromoanthraquinone-2-sulfonic acid phenethylamide] |  |
| 0 | 0 | 0 | Nc1c(S(=O)(=O)Oc2cccc([N+](=O)[O-])c2)cc(Br)c2c1C(=O)c1ccccc1C2=O [Compound 29, 1-Amino-4-bromoanthraquinone-2-sulfonic acid 3-nitrophenyl ester] |  |
| 0 | 0 | 0 | Cc1cc(Nc2cccc3ccccc23)c2c(c1N)C(=O)c1ccccc1C2=O [Compound 26, 1-Amino-2-methyl-4-(1-naphthylamino)anthraquinone] |  |
| 0 | 0 | 0 | Nc1c(S(=O)(=O)Oc2ccccc2[N+](=O)[O-])cc(Br)c2c1C(=O)c1ccccc1C2=O [Compound 28, 1-Amino-4-bromoanthraquinone-2-sulfonic acid 2-nitrophenyl ester] |  |
| 0 | 0 | 0 | COS(=O)(=O)c1cc(Br)c2c(c1N)C(=O)c1ccccc1C2=O [Compound 27, 1-Amino-4-bromoanthraquinone-2-sulfonic acid methyl ester] |  |
| 0 | 0 | 0 | Nc1c(S(=O)(=O)Oc2ccc([N+](=O)[O-])cc2)cc(Br)c2c1C(=O)c1ccccc1C2=O [Compound 30, 1-Amino-4-bromoanthraquinone-2-sulfonic acid 4-nitrophenyl ester] |  |
| 0 | 0 | 0 | Cc1cc(Nc2ccccc2)c2c(c1N)C(=O)c1ccccc1C2=O [Compound 23, 1-Amino-2-methyl-4-phenylaminoanthraquinone] |  |

The remaining lines, values behind:

| Compound | inhibition at 1000 µM (rat NTPDase2) [%] | inhibition at 1000 µM (rat NTPDase3) [%] | inhibition at 1000 µM (rat NTPDase1) [%] | further results |
| --- | --- | --- | --- | --- |
| Cc1ccccc1Nc1cc(S(=O)(=O)O)c(N)c2c1C(=O)c1ccccc1C2=O [Compound 12] |  |  |  | percent inhibition at 1 mM NTPDase1 (rat NTPDase1): (25%) |
| CC(=O)Nc1ccc(Nc2cc(S(=O)(=O)O)c(N)c3c2C(=O)c2ccccc2C3=O)cc1 [Compound 19] |  |  |  | NTPDase inhibitory activity (in words) (NTPDases1, 2, and 3): nearly inactive; percent inhibition at 1 mM NTPDase1 (rat NTPDase1): (15%); IC50 (P2Y2): 6 to 12 µM |
| Cc1cccc(Nc2cc(S(=O)(=O)O)c(N)c3c2C(=O)c2ccccc2C3=O)c1C [Compound 14] |  |  |  | percent inhibition at 1 mM NTPDase1 (rat NTPDase1): (67%)^b |
| Nc1c(S(=O)(=O)[O-])cc(Nc2cccc3ccccc23)c2c1C(=O)c1ccccc1C2=O.[Na+] [Compound 20, Sodium 1-amino-4-(1-naphthylamino)-9,10-dioxo-9,10-dihydroanthracene 2-sulfonate] | 0 |  | 0 | inhibition of rat NTPDase2 (in words) (rat NTPDase2; rat NTPDase2): not inhibitory; inhibition of rat NTPDase1 (in words) (rat NTPDase1): not inhibitory |
| CCOc1ccccc1Nc1cc(S(=O)(=O)O)c(N)c2c1C(=O)c1ccccc1C2=O [Compound 17] |  |  |  | percent inhibition at 1 mM NTPDase1 (rat NTPDase1): (17%) |
| Nc1c(S(=O)(=O)O)cc(Nc2ccc(Cl)cc2)c2c1C(=O)c1ccccc1C2=O [Compound 18, 1-Amino-2-sulfo-4-p-chloroanilinoanthraquinone] |  |  |  | Ki (rat NTPDase3): 16.4 ± 1.6 µM; effect on Vmax value of NTPDase3 (rat NTPDase3; [3]): not affected; mechanism of inhibition (NTPDase3 kinetics, Lineweaver-Burk plot) (rat NTPDase3; [3]): competitive; effect on Km value of NTPDase3 (rat NTPDase3; rat NTPDase3, with increasing concentration of inhibitor (10, 20, 30 μM)): increased; time until precipitation (in words) [1]: short period of time |
| COc1ccccc1Nc1cc(S(=O)(=O)O)c(N)c2c1C(=O)c1ccccc1C2=O [Compound 16] |  |  |  | inhibition of rat NTPDase1 (in words) (rat NTPDase1): weak; percent inhibition at 1 mM NTPDase1 (rat NTPDase1): (57%); IC50 (P2Y2): ~9 µM |
| Nc1c(S(=O)(=O)O)cc(Nc2ccc3ccccc3c2)c2c1C(=O)c1ccccc1C2=O [Compound 21, Sodium 1-amino-4-(2-naphthylamino)-9,10-dioxo-9,10-dihydroanthracene 2-sulfonate] |  |  |  | Ki (rat NTPDase3): 2.22 ± 1.03 µM |
| Nc1c(S(=O)(=O)O)cc(Nc2ccccc2)c2c1C(=O)c1ccccc1C2=O [Compound 11] |  |  |  | inhibition of ATP degradation in rat vas deferens tissue [2]: inactive |
| COc1ccc(CCNc2cc(S(=O)(=O)O)c(N)c3c2C(=O)c2ccccc2C3=O)cc1OC [Compound 22, Sodium 1-amino-4-(3,4-dimethoxyphenethylamino)-9,10-dioxo-9,10-dihydroanthracene 2-sulfonate] |  |  |  | Ki (rat NTPDase2): 54.1 ± 6.8 µM; Ki (rat NTPDase3): 23.4 ± 0.4 µM; Ki (rat NTPDase1): 173 ± 6 µM |
